# According to patent US11147272B2, “Pyridone compounds and agricultural and horticultural fungicides comprising the same as active ingredients” (MITSUI CHEMICALS AGRO, INC., priority 2017, dated 2021):
# Columns and labels:
# Plasmopara viticola = experiment: Test Example G: Downy mildew on vine; conditions: for Test G control value: 7 to 10 days after inoculation; for Test G control value class: Downy mildew on vine (Neomuscat), 2.5 ml/pot, assessed 7 to 10 days after inoculation
# [1] = test system: Colletotrichum orbiculare; experiment: Test Example H: Anthracnose on cucumber; conditions: for Test H control value: 6 to 10 days after inoculation; for Test H control value class: Anthracnose on cucumber (Sagami Hanjiro), 2.5 ml/pot, assessed 6 to 10 days after inoculation
# Puccinia recondita = experiment: Test Example E: Brown rust on wheat; assay type: in vivo
# Phytophthora infestans = experiment: whole plant or invertebrate; assay type: in vivo; conditions: for Test F control value class: class of control value
# Botrytis cinerea = experiment: Test Example B: Gray mold on tomato; conditions: for Test B control value class: class of control value
# [2] = test system: Blumeria graminis f. sp. hordei; experiment: Test Example D: Powdery mildew on barley; conditions: for Test D control value class: class of control value
# Magnaporthe grisea = experiment: whole plant or invertebrate; assay type: in vivo; conditions: for Test A control value class: class of control value
# Alternaia brassicicola = experiment: Test Example C: Alternaria sooty spot on cabbage; assay type: in vivo
# Excerpt: Seeds of a test plant (cabbage variety: Shikidori) were planted and cultivated until the cotyledons extended.
# <Control Value> Control value=100{1−(n/3)}
# [3] = 250 ppm drug solution sprayed (2.5 ml/pot), grape Neomuscat
# [4] = 250 ppm drug solution sprayed (2.5 ml/pot), cucumber Sagami Hanjiro
# [5] = 250 ppm drug solution sprayed on test plant
# [6] = Downy mildew on vine, 250 ppm spray
# [7] = Anthracnose on cucumber, 250 ppm spray
# [8] = Brown rust on wheat, control value class
# [9] = Late blight on tomato, control value class
# [10] = Gray mold on tomato, control value class
# [11] = Powdery mildew on barley, control value class
# [12] = Blast on rice, control value class
# [13] = Alternaria sooty spot on cabbage, control value class
# [14] = Brown rust on wheat, class of control value
# [15] = Alternaria sooty spot on cabbage, class of control value
Compound,Test G control value (Plasmopara viticola; [6]),"Test H control value [1, 7]",Test E control value (Puccinia recondita; [8]),Test F control value (Phytophthora infestans; [9]),Test B control value (Botrytis cinerea; [10]),"Test D control value [2, 11]",Test A control value (Magnaporthe grisea; [12]),Test C control value (Alternaia brassicicola; [13]),Test G control value class (Plasmopara viticola; 250 ppm spray),Test H control value class ([1]; 250 ppm spray),Test E control value class (Puccinia recondita; [14]),Test F control value class (Phytophthora infestans; Late blight on tomato),Test B control value class (Botrytis cinerea; Gray mold on tomato),Test D control value class ([2]; Powdery mildew on barley),Test A control value class (Magnaporthe grisea; Blast on rice),Test C control value class (Alternaia brassicicola; [15]),other results
CCCc1cc(Cl)c(=O)n(CC)c1-c1c(F)cccc1F [compound 428],,,,,,,,,,,,,,,,,"Test G control value (Plasmopara viticola; [3]): H (more than 50% control value); Test H control value [1, 4]: H (more than 50% control value); Test E control value (Puccinia recondita; [5]): H (more than 50% control value); Test F control value (Phytophthora infestans; [5]): L (50% or less control value); Test B control value (Botrytis cinerea; [5]): H (more than 50% control value); Test D control value [2, 5]: H (more than 50% control value); Test A control value (Magnaporthe grisea; [5]): H (more than 50% control value); Test C control value (Alternaia brassicicola; [5]): H (more than 50% control value)"
CCc1cc(Cl)c(=O)n(CC)c1-c1ccc(OC)cc1Cl [compound 327],H (more than 50% control value),H (more than 50% control value),H (more than 50% control value),H (more than 50% control value),H (more than 50% control value),L (50% or less control value),H (more than 50% control value),H (more than 50% control value),,,,,,,,,
CCOC(C)(c1cc(Br)c(=O)n(CC)c1-c1c(F)cc(F)cc1F)C(C)C (centres unmarked) [compound 466],,,,,,,,,,,,,,,,,"Test G control value (Plasmopara viticola; [3]): L (50% or less control value); Test H control value [1, 4]: L (50% or less control value); Test E control value (Puccinia recondita; [5]): L (50% or less control value); Test F control value (Phytophthora infestans; [5]): L (50% or less control value); Test B control value (Botrytis cinerea; [5]): L (50% or less control value); Test D control value [2, 5]: H (more than 50% control value); Test A control value (Magnaporthe grisea; [5]): L (50% or less control value); Test C control value (Alternaia brassicicola; [5]): H (more than 50% control value)"
CCn1c(-c2ccc(C)cc2F)c(CC(C)C)ccc1=O [compound 141],,,,,,,,,H (more than 50% control value),L (50% or less control value),H (more than 50% control value),L (50% or less control value),H (more than 50% control value),H (more than 50% control value),H (more than 50% control value),H (more than 50% control value),
CC(C)Cc1cc(Br)c(=O)n(C)c1-c1ccc(Cl)cc1Cl [compound 138],,,,,,,,,L (50% or less control value),H (more than 50% control value),H (more than 50% control value),L (50% or less control value),H (more than 50% control value),L (50% or less control value),H (more than 50% control value),H (more than 50% control value),
CCn1c(-c2c(F)cc(F)cc2F)c(C(O)C2CC2)cc(Cl)c1=O (centres unmarked) [compound 258],H (more than 50% control value),H (more than 50% control value),H (more than 50% control value),L (50% or less control value),H (more than 50% control value),H (more than 50% control value),H (more than 50% control value),H (more than 50% control value),,,,,,,,,
CCCc1cc(Br)c(=O)n(CC)c1-c1c(F)cc(OCC)cc1F [compound 458],,,,,,,,,,,,,,,,,"Test G control value (Plasmopara viticola; [3]): H (more than 50% control value); Test H control value [1, 4]: H (more than 50% control value); Test E control value (Puccinia recondita; [5]): H (more than 50% control value); Test F control value (Phytophthora infestans; [5]): L (50% or less control value); Test B control value (Botrytis cinerea; [5]): H (more than 50% control value); Test D control value [2, 5]: H (more than 50% control value); Test A control value (Magnaporthe grisea; [5]): H (more than 50% control value); Test C control value (Alternaia brassicicola; [5]): H (more than 50% control value)"
Cc1ccc(=O)n(C)c1-c1c(F)cccc1F [compound 3],,,,,,,,,L (50% or less control value),L (50% or less control value),L (50% or less control value),L (50% or less control value),L (50% or less control value),L (50% or less control value),L (50% or less control value),H (more than 50% control value),
CCCC1=C(c2ccc(F)cc2Br)N(C)C(=O)CC1 [compound 341],L (50% or less control value),H (more than 50% control value),L (50% or less control value),L (50% or less control value),L (50% or less control value),L (50% or less control value),L (50% or less control value),L (50% or less control value),,,,,,,,,
CCn1c(-c2ccc(C#N)cc2)c(C(C)(O)C(C)C)cc(Cl)c1=O (centres unmarked) [compound 235],L (50% or less control value),L (50% or less control value),H (more than 50% control value),L (50% or less control value),L (50% or less control value),L (50% or less control value),L (50% or less control value),H (more than 50% control value),,,,,,,,,
CCc1cc(Cl)c(=O)n(CC)c1-c1ccc(OC)cc1C [compound 355],L (50% or less control value),H (more than 50% control value),H (more than 50% control value),L (50% or less control value),H (more than 50% control value),H (more than 50% control value),H (more than 50% control value),H (more than 50% control value),,,,,,,,,
CCOc1ccc(-c2c(CC(C)C)cc(Cl)c(=O)n2CC)c(F)c1 [compound 123],,,,,,,,,H (more than 50% control value),H (more than 50% control value),H (more than 50% control value),L (50% or less control value),H (more than 50% control value),H (more than 50% control value),H (more than 50% control value),H (more than 50% control value),
"CCn1c(-c2c(F)cccc2F)c(C(O)C(C)C)cc(Cl)c1=O (centres unmarked) [Compound No. 53, 3-chloro-6-(2,6-difluorophenyl)-1-ethyl-5-(1-hydroxy-2-methylpropyl)pyridin-2(1H)-one]",,,,,,,,,,,,,,,,,"pest or weed control at 250 ppm (Plasmopara viticola; Plasmopara viticola, topical, read-out: Test G control value class): > 50%; pest or weed control at 250 ppm ([1]; Colletotrichum orbiculare, in Cucumis sativus, topical, read-out: Test H control value class): > 50%; pest or weed control at 250 µg/mL (Puccinia recondita; Puccinia recondita, topical, Brown rust on wheat, class of control value, read-out: Test E control value class): > 50%; pest or weed control at 250 µg/mL (Phytophthora infestans; Phytophthora infestans, in Solanum lycopersicum, topical, read-out: Test F control value class): < 50%; pest or weed control at 250 µg/mL (Botrytis cinerea; Botrytis cinerea, in Solanum lycopersicum, topical, read-out: Test B control value class): > 50%; pest or weed control at 250 µg/mL ([2]; Blumeria graminis, in Hordeum vulgare, topical, read-out: Test D control value class): > 50%; pest or weed control at 250 µg/mL (Magnaporthe grisea; Pyricularia oryzae, in Oryza sativa, read-out: Test A control value class): > 50%; pest or weed control at 250 µg/mL (Alternaia brassicicola; Brassica oleracea, topical, Alternaria sooty spot on cabbage, class of control value, read-out: Test C control value class): > 50%"
